Measurements from patent publication US20250213707A1, “COMPOUND FOR INCREASING EFFICACY OF ONCOLYTIC VIRUSES” (ABLEVIA BIOTECH GMBH, priority 2022, published 2025).

Columns and labels:
Type in all cases: binding
mAb E10B10 = assay: Fine epitope mapping of mAb E10B10 with 1068 circular peptides from SRCR-1 to -3 of mouse CD163; conditions: circular peptides of 7, 10 and 13 amino acids from mouse CD163
Text: The epitope of this antibody was fine mapped using circular peptide arrays, whereby the peptides were derived from mouse CD163.

[1] = tested on: IgG from human donors (anti-measles virus antibodies); parameters: key: X: The peptides belonging to the Top 10% hits
[2] = tested on: IgG from human donors (anti-AAV antibodies); assay: Screen for anti-AAV antibodies in human sera, 2452 linear 15-amino-acid AAV peptides on microarrays (Table 1); parameters: key to group I: X: the deduplicated aggregate of the respective top 10 peptide hits for each donor was compiled and designated as group I; key to group II: X: the deduplicated aggregate of the respective top 25 peptide hits for each donor was compiled and designated as group II; key to group III: X: the deduplicated aggregate of the respective top 50 peptide hits for each donor was compiled and designated as group III; conditions: human donor IgG binding to linear 15-amino-acid AAV peptides on microarray, fluorescence; for group I: membership in deduplicated aggregate of top 10 peptide hits for each donor; for group II: membership in deduplicated aggregate of top 25 peptide hits for each donor; for group III: membership in deduplicated aggregate of top 50 peptide hits for each donor
In short: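 Peptide hits were grouped I to IV by pooling each donor's top 10, 25, 50 or 250 background-corrected fluorescence signals, after deduplication. Signals came from donor IgG, purified on protein G, bound to arrayed 15-residue linear peptides (2452 total) spanning 16 AAV sequences.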

mAb Mac2-158 = assay: Epitope mapping of mAb Mac2-158 with circular peptides of human CD163 SRCR domain 1; conditions: circular peptides aligned to SRCR domain 1 of human CD163
Text: As a result, the following sequences (as well as motifs derived therefrom) are highly suitable epitopes anti-CD163 antibodies and fragments thereof used as SADC biopolymer scaffold: […]

371 (VTNAPGE) [compound 371]
rank by relative signal strength (top binding peptides of mAb E10B10) (mAb E10B10): 04

369 (ASAVTNAPGEMKK) [compound 369]
rank by relative signal strength (top binding peptides of mAb E10B10) (mAb E10B10): 02

NYNKSVNVDFTVDT (REGION 1..14: note = peptide derived from viral capsid protein) [SEQ ID NO: 1903]
top 10% [1]: X
group I [2]: X
group II [2]: X
group III [2]: X
peptide number among the top 20 peptide hits of mAb Mac2-158 (mAb Mac2-158): 19

368 (VTNAPGEMKKELR) [compound 368]
rank by relative signal strength (top binding peptides of mAb E10B10) (mAb E10B10): 01

372 (GSASAVTNAPGEM) [compound 372]
rank by relative signal strength (top binding peptides of mAb E10B10) (mAb E10B10): 05

380 (TNAPGEMKKE) [compound 380]
rank by relative signal strength (top binding peptides of mAb E10B10) (mAb E10B10): 13

379 (SAVTNAPGEMKKE) [compound 379]
rank by relative signal strength (top binding peptides of mAb E10B10) (mAb E10B10): 12

373 (AVTNAPGEMKKEL) [compound 373]
rank by relative signal strength (top binding peptides of mAb E10B10) (mAb E10B10): 06

DEEEIRTTNPVATE (REGION 1..14: note = peptide derived from viral capsid protein) [SEQ ID NO: 1902]
top 10% [1]: X
group I [2]: X
group II [2]: X
group III [2]: X
peptide number among the top 20 peptide hits of mAb Mac2-158 (mAb Mac2-158): 18

375 (SGSASAVTNAPGE) [compound 375]
rank by relative signal strength (top binding peptides of mAb E10B10) (mAb E10B10): 08

370 (VTNAPGEMKK) [compound 370]
rank by relative signal strength (top binding peptides of mAb E10B10) (mAb E10B10): 03

SNSQLIFAGPNPSG [SEQ ID NO: 1908]
top 10% [1]: X
group I [2]: X
group II [2]: X
group III [2]: X
peptide number among the top 20 peptide hits of mAb Mac2-158 (mAb Mac2-158): 03

376 (AVTNAPGEMK) [compound 376]
rank by relative signal strength (top binding peptides of mAb E10B10) (mAb E10B10): 09

KIFNIQVKEVTTSN (REGION 1..14: note = peptide derived from viral capsid protein) [SEQ ID NO: 1896]
top 10% [1]: X
group I [2]: X
group II [2]: X
group III [2]: X
peptide number among the top 20 peptide hits of mAb Mac2-158 (mAb Mac2-158): 20

377 (SAVTNAPGEM) [compound 377]
rank by relative signal strength (top binding peptides of mAb E10B10) (mAb E10B10): 10

378 (ASAVTNAPGE) [compound 378]
rank by relative signal strength (top binding peptides of mAb E10B10) (mAb E10B10): 11

374 (SASAVTNAPGEMK) [compound 374]
rank by relative signal strength (top binding peptides of mAb E10B10) (mAb E10B10): 07
